Reference: ChEMBL document CHEMBL1132704, “Design and synthesis of sulfonyl-substituted 4,5-diarylthiazoles as selective cyclooxygenase-2 inhibitors” (Bioorg Med Chem Lett, 1999)

Tests used:
[1] = molecular target: Prostaglandin G/H synthase 1 (Homo sapiens, UniProt P23219)
Description: Inhibition of human cyclooxygenase-1 (hCOX-1) enzyme.

[2] = molecular target: T1, Prostaglandin G/H synthase 2 (Homo sapiens, UniProt P35354)
T1 sequence (P35354 whole entry): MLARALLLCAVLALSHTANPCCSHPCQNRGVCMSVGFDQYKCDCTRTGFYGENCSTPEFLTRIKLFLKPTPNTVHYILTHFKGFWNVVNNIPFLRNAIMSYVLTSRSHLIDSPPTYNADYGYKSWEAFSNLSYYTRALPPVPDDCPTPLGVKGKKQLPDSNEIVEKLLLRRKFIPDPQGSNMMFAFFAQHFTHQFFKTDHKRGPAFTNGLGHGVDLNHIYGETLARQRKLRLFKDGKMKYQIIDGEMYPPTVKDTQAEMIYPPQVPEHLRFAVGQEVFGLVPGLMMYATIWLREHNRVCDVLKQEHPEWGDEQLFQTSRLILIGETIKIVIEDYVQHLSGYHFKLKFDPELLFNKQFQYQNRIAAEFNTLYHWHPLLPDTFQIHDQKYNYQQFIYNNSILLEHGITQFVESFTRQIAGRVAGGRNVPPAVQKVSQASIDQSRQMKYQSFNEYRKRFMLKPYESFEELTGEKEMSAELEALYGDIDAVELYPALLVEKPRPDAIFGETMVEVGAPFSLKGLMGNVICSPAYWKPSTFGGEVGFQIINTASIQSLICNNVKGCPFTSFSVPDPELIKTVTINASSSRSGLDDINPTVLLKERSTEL

Rattus norvegicus [3] = test: Compound was evaluated for the antiinflammatory activity in vivo in the carrageenan rat paw edema (CPE); type: functional
Rattus norvegicus [4] = test: Compound was evaluated for the percent inhibition of hyperalgesia at an effective dose of 20 mg/kg in rat; type: functional

Chain of Prostaglandin G/H synthase 1 (P23219 whole entry): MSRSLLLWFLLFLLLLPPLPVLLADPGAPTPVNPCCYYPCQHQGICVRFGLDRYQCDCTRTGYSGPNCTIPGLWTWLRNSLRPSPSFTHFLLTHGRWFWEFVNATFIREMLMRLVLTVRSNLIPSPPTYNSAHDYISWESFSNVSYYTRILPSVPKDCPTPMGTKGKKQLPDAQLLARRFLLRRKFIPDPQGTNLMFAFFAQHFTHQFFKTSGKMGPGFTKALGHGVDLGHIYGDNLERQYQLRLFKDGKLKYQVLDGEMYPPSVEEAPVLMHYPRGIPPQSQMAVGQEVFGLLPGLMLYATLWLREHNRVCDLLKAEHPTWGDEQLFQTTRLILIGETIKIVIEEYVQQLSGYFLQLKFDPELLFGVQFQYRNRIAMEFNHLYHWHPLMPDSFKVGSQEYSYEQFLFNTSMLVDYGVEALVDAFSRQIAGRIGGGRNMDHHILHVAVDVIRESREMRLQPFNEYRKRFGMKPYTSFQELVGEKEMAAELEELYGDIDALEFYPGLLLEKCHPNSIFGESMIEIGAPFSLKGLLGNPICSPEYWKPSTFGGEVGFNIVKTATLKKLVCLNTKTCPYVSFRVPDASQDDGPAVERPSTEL

Row | SMILES | IC50 [1] [µM] | IC50 [2] [µM] | ED50 (Rattus norvegicus [3]) [mg/kg] | inhibition in vivo at 20 mg/kg (Rattus norvegicus [4]) [%]
1 | CC(C)(C)c1nc(-c2ccc(F)cc2)c(-c2ccc(S(C)(=O)=O)cc2)s1 | > 100 | 0.11 |  | 
2 | Cc1nc(-c2ccc(S(C)(=O)=O)cc2)c(-c2ccc(F)cc2)s1 | > 100 | 0.12 |  | 
3 | COc1ccc(-c2nc(-c3ccc(F)cc3)c(-c3ccc(S(C)(=O)=O)cc3)s2)cc1 | > 10 | 0.27 |  | 
4 | CS(=O)(=O)c1ccc(-c2sc(-c3cccnc3)nc2-c2ccc(F)cc2)cc1 | > 1000 | 0.43 |  | 
5 | CS(=O)(=O)c1ccc(-c2sc(-c3ccccc3Cl)nc2-c2ccccc2F)cc1 | > 100 | 0.01 |  | 
6 | CS(=O)(=O)c1ccc(-c2sc(CCCc3ccc(Br)cc3)nc2-c2ccc(F)cc2)cc1 | > 10 | 0.007 |  | 
7 | CS(=O)(=O)c1ccc(-c2sc(-c3ccccc3Cl)nc2-c2ccccc2)cc1 | > 100 | 0.01 |  | 
8 | CS(=O)(=O)c1ccc(-c2sc(-c3cccs3)nc2-c2ccc(F)cc2)cc1 | > 100 | 0.021 |  | 
9 | CC(C)(C)c1ccc(-c2nc(-c3ccc(F)cc3)c(-c3ccc(S(C)(=O)=O)cc3)s2)cc1 | > 100 | > 100 |  | 
10 | CS(=O)(=O)c1ccc(-c2sc(-c3ccncc3)nc2-c2ccc(F)cc2)cc1 | > 100 | 1.6 |  | 
11 | CS(=O)(=O)c1ccc(-c2sc(CCc3ccccc3)nc2-c2ccc(F)cc2)cc1 | > 100 | 0.032 |  | 
12 | CS(=O)(=O)c1ccc(-c2sc(-c3ccccc3Cl)nc2-c2cccs2)cc1 | > 100 |  |  | 
13 | CS(=O)(=O)c1ccc(-c2sc(-c3ccccc3Cl)nc2-c2ccc(F)cc2)cc1 | > 100 | 0.05 | 20 | 27
14 | CS(=O)(=O)c1ccc(-c2sc(CCCc3ccccc3)nc2-c2ccc(F)cc2)cc1 | > 1000 | 0.52 |  | 
15 | CS(=O)(=O)c1ccc(-c2sc(-c3ccc(Cl)cc3)nc2-c2ccc(F)cc2)cc1 | > 100 | 0.05 |  | 
16 | Cc1nc(-c2ccc(F)cc2)c(-c2ccc(S(C)(=O)=O)cc2)s1 | > 10 | 0.11 |  | 
17 | CS(=O)(=O)c1ccc(-c2nc(C(F)(F)F)sc2-c2ccc(F)cc2)cc1 | 1.07 | 0.006 |  | 
18 | CS(=O)(=O)c1ccc(-c2sc(-c3ccccc3Cl)nc2-c2ccc(F)cc2F)cc1 |  | 0.021 |  | 
19 | CCOC(=O)c1nc(-c2ccc(F)cc2)c(-c2ccc(S(C)(=O)=O)cc2)s1 | > 100 | 0.61 |  | 
20 | CS(=O)(=O)c1ccc(-c2sc(-c3ccccc3Cl)nc2-c2cc(F)ccc2F)cc1 | > 100 | > 100 |  | 
21 | CS(=O)(=O)c1ccc(-c2sc(-c3ccccc3Cl)nc2-c2ccsc2)cc1 | > 100 |  |  | 
22 | CS(=O)(=O)c1ccc(-c2sc(CC#N)nc2-c2ccc(F)cc2)cc1 | > 100 | 0.35 |  | 
23 | CS(=O)(=O)c1ccc(-c2sc(C(F)(F)F)nc2-c2ccc(F)cc2)cc1 | > 100 | 0.023 |  | 
24 | CS(=O)(=O)c1ccc(-c2sc(-c3ccccc3Cl)nc2-c2cccc(F)c2)cc1 | > 100 | 0.016 |  | 
25 | CS(=O)(=O)c1ccc(-c2sc(Cc3ccccc3)nc2-c2ccc(F)cc2)cc1 | > 100 | 0.018 |  | 
26 | CS(=O)(=O)c1ccc(-c2nc(-c3ccccc3)sc2-c2ccc(F)cc2)cc1 | > 100 | 0.54 |  | 
27 | CS(=O)(=O)c1ccc(-c2sc(-c3ccccc3)nc2-c2ccc(F)cc2)cc1 | > 100 | > 30 |  | 
28 | CCc1nc(-c2ccc(F)cc2)c(-c2ccc(S(C)(=O)=O)cc2)s1 | 19 | 0.023 |  | 
